In patent US11001564B2, “Substituted chromane-8-carboxamide compounds and analogues thereof, and methods using same” (priority 2016, dated 2021):
Like-named read-outs stand apart in the source and are kept apart here.

Tested on: HBV rcDNA in HepDE19 cells
Experiment: HepDE19 assay with bDNA quantitation of HBV rcDNA
Assay type: cell-based, hepatitis B virus (HBV)
Procedure: HepDE19 Assay with bDNA Quantitation of HBV rcDNA:
HepDE19 cell culture system is a HepG2 (human hepatocarcinoma) derived cell line that supports HBV DNA replication and cccDNA formation in a tetracycline (Tet)-regulated manner and produces HBV rcDNA and a detectable reporter molecule dependent on the production and maintenance of cccDNA (Guo, et al., 2007, J. Virol. 81:12472-12484).
HepDE19 (50,000 cells/well) were plated in 96 well collagen-coated tissue-culture treated microtiter plates in DMEM/F12 medium supplemented with 10% fetal bovine serum, 1% penicillin-streptomycin and 1 μg/mL tetracycline and incubated in a humidified incubator at 37° C. and 5% CO2 overnight. Next day, the cells were switched to fresh medium without tetracycline and incubated for 4 hours at 37° C. and 5% CO2. The cells were treated with fresh Tet-free medium with compounds at concentrations starting at 25 μM and a serial, ½ log, 8-point, titration series in duplicate. The final DMSO concentration in the assay was 0.5%. The plates were incubated for 7 days in a humidified incubator at 37° C. and 5% CO2. Following a 7 day-incubation, the level of rcDNA present in the inhibitor-treated wells was measured using a Quantigene 2.0 bDNA assay kit (Affymetrix, Santa Clara, Calif.) with HBV specific custom probe set and manufacturers instructions. Concurrently, the effect of compounds on cell viability was assessed using replicate plates, plated at a density of 5,000 cells/well and incubated for 4 days, to determine the ATP content as a measure of cell viability using the cell-titer glo reagent (CTG; Promega Corporation, Madison, Wis.) as per manufacturer's instructions. The plates were read using a Victor luminescence plate reader (PerkinElmer Model 1420 Multilabel counter) and the relative luminescence units (RLU) data generated from each well was calculated as % inhibition of the untreated control wells and analyzed using XL-Fit module in Microsoft Excel to determine EC50 and EC90 (bDNA) and CC50 (CTG) values using a 4-parameter curve fitting algorithm.
Representative compounds of the invention were tested for their ability to inhibit formation of relaxed circular DNA (rcDNA) in a HepDE19 assay, as described elsewhere herein.

[1] = HepDE19 cells, 7 day incubation, rcDNA by Quantigene 2.0 bDNA assay, read-out: DE-19 bDNA EC50
[2] = read-out: DE-19 bDNA EC50, HepDE19 cells, 7 day incubation, rcDNA by Quantigene 2.0 bDNA assay
[3] = Hepatitis B virus, HepDE19, 168 h, HepDE19 cells, 7 day incubation, rcDNA by Quantigene 2.0 bDNA assay, read-out: DE-19 bDNA EC50
[4] = Hepatitis B virus, HepDE19, 168 h, read-out: DE-19 bDNA EC50, HepDE19 cells, 7 day incubation, rcDNA by Quantigene 2.0 bDNA assay

| Compound | EC50 [1] | EC50 [3] | also measured |
| --- | --- | --- | --- |
| COC1CCOc2c(C(=O)Nc3ccc(F)c(F)c3)cccc21 (single isomer, unassigned) [Compound 6, N-(3,4-difluorophenyl)-4-methoxychromane-8-carboxamide] | 4.3 µM |  |  |
| COC1CCOc2c(C(=O)Nc3ccc(F)c(F)c3)cccc21 (single isomer, unassigned) [Compound 7, N-(3,4-difluorophenyl)-4-methoxychromane-8-carboxamide] | 1.8 µM |  |  |
| O=C(N[C@H]1CCOc2c(C(=O)Nc3ccc(F)c(F)c3)cccc21)OC1CCOC1 (single isomer, unassigned) [Compound 25, Tetrahydrofuran-3-yl-(8-((3,4-difluorophenyl)carbamoyl)chroman-4-yl)carbamate] |  |  | EC50 [2]: 23 µM |
| O=C(N[C@H]1CCOc2c(C(=O)Nc3ccc(F)c(F)c3)cccc21)OC1CCOC1 (single isomer, unassigned) [Compound 26, Tetrahydrofuran-3-yl-(8-((3,4-difluorophenyl)carbamoyl)chroman-4-yl)carbamate] |  |  | EC50 [2]: 7.4 µM |
| O=C(Nc1ccc(F)c(F)c1)c1cccc2c1OCCC2c1ccncc1 (single isomer, unassigned) [Compound 69, N-(3,4-Difluorophenyl)-4-(pyridin-4-yl)chromane-8-carboxamide] |  | 12 µM |  |
| O=C(Nc1ccc(F)c(F)c1)c1cccc2c1OCCC2c1ccncc1 (single isomer, unassigned) [Compound 70, N-(3,4-Difluorophenyl)-4-(pyridin-4-yl)chromane-8-carboxamide] | 23 µM |  |  |
| O=C(N[C@H]1CCOc2c(C(=O)Nc3ccc(F)c(F)c3)cccc21)OCC1CCCCN1 (single isomer, unassigned) [Compound 85] |  | 19 µM |  |
| O=C(N[C@H]1CCOc2c(C(=O)Nc3ccc(F)c(F)c3)cccc21)OCC1CCCCN1 (single isomer, unassigned) [Compound 86] | 15 µM |  |  |
| O=C(N[C@H]1CCOc2c(C(=O)Nc3ccc(F)c(F)c3)cccc21)OCC1CCCNC1 (single isomer, unassigned) [Compound 87] |  | 16 µM |  |
| O=C(N[C@H]1CCOc2c(C(=O)Nc3ccc(F)c(F)c3)cccc21)OCC1CCCNC1 (single isomer, unassigned) [Compound 94] | 22 µM |  |  |
| CN1CCCC(COC(=O)N[C@H]2CCOc3c(C(=O)Nc4ccc(F)c(F)c4)cccc32)C1 (single isomer, unassigned) [Compound 98] |  | 23 µM |  |
| CN1CCCC(COC(=O)N[C@H]2CCOc3c(C(=O)Nc4ccc(F)c(F)c4)cccc32)C1 (single isomer, unassigned) [Compound 99] | 25 µM |  |  |
| O=C(N[C@H]1CCOc2c(C(=O)Nc3ccc(F)c(F)c3)cccc21)OCC1CCNC1 (single isomer, unassigned) [Compound 108] |  | 21 µM |  |
| O=C(N[C@H]1CCOc2c(C(=O)Nc3ccc(F)c(F)c3)cccc21)OCC1CCNC1 (single isomer, unassigned) [Compound 109] | 21 µM |  |  |
| CNC(=O)CC1CCOc2c(C(=O)Nc3ccc(F)c(F)c3)cccc21 (single isomer, unassigned) [Compound 131, N-(3,4-difluorophenyl)-4-(2-(methylamino)-2-oxoethyl) chromane-8-carboxamide] |  | 20 µM |  |
| CNC(=O)CC1CCOc2c(C(=O)Nc3ccc(F)c(F)c3)cccc21 (single isomer, unassigned) [Compound 132, N-(3,4-difluorophenyl)-4-(2-(methylamino)-2-oxoethyl) chromane-8-carboxamide] | 21 µM |  |  |
| CC(=O)N1CCCC1COC(=O)N[C@H]1CCOc2c(C(=O)Nc3ccc(F)c(F)c3)cccc21 (single isomer, unassigned) [Compound 139] |  |  | EC50 [4]: 4.6 µM |
| CC(=O)N1CCC(COC(=O)N[C@H]2CCOc3c(C(=O)Nc4ccc(F)c(F)c4)cccc32)C1 (single isomer, unassigned) [Compound 144] |  |  | EC50 [4]: 5.4 µM |

| Compound | EC50 [1] | EC50 [3] | also measured |
| --- | --- | --- | --- |
| CC(=O)N1CCC(COC(=O)N[C@H]2CCOc3c(C(=O)Nc4ccc(F)c(F)c4)cccc32)C1 (single isomer, unassigned) [Compound 145] |  |  | EC50 [2]: 7 µM |
| COC(=O)NC1CCN(C)c2c(C(=O)Nc3ccc(F)c(F)c3)cccc21 (single isomer, unassigned) [Compound 177, Methyl (8-((3,4-difluorophenyl)carbamoyl)-1-methyl-1,2,3,4-tetrahydroquinolin-4-yl)carbamate] |  |  | EC50 [4]: 2.3 µM |
| COC(=O)NC1CCN(C)c2c(C(=O)Nc3ccc(F)c(Cl)c3)cccc21 (single isomer, unassigned) [Compound 178, Methyl (8-((3-chloro-4-fluorophenyl)carbamoyl)-1-methyl-1,2,3,4-tetrahydroquinolin-4-yl)carbamate] |  |  | EC50 [2]: 13 µM |
| COC(=O)NC1CCN(C)c2c(C(=O)Nc3ccc(F)c(Cl)c3)cccc21 (single isomer, unassigned) [Compound 179, Methyl (8-((3-chloro-4-fluorophenyl)carbamoyl)-1-methyl-1,2,3,4-tetrahydroquinolin-4-yl)carbamate] |  |  | EC50 [2]: 0.94 µM |
| CN1CCC(NC(=O)OCc2ccccn2)c2cccc(C(=O)Nc3ccc(F)c(F)c3)c21 (single isomer, unassigned) [Compound 180, Pyridin-2-ylmethyl (8-((3,4-difluorophenyl)carbamoyl)-1-methyl-1,2,3,4-tetrahydroquinolin-4-yl)carbamate] | 15 µM |  |  |
| CN1CCC(NC(=O)OCc2ccccn2)c2cccc(C(=O)Nc3ccc(F)c(F)c3)c21 (single isomer, unassigned) [Compound 181, Pyridin-2-ylmethyl (8-((3,4-difluorophenyl)carbamoyl)-1-methyl-1,2,3,4-tetrahydroquinolin-4-yl)carbamate] | 2.5 µM |  |  |
| CN1CCC(NC(=O)OCc2ccccn2)c2cccc(C(=O)Nc3ccc(F)c(Cl)c3)c21 (single isomer, unassigned) [Compound 182, Pyridin-2-ylmethyl (8-((3-chloro-4-fluorophenyl)carbamoyl)-1-methyl-1,2,3,4-tetrahydroquinolin-4-yl)carbamate] | 12 µM |  |  |
| CN1CCC(NC(=O)OCc2ccccn2)c2cccc(C(=O)Nc3ccc(F)c(Cl)c3)c21 (single isomer, unassigned) [Compound 183, Pyridin-2-ylmethyl (8-((3-chloro-4-fluorophenyl)carbamoyl)-1-methyl-1,2,3,4-tetrahydroquinolin-4-yl)carbamate] | 0.72 µM |  |  |
| CC(C)NS(=O)(=O)N[C@H]1CCOc2c(C(=O)Nc3ccc(F)c(F)c3)cccc21 (stereo in doubt) [Compound 15] |  | 9.7 µM |  |
| O=C(Nc1cccc(Cl)c1)c1cccc2c1OCCC2 [Compound 1, N-(3-chlorophenyl)chromane-8-carboxamide] |  | 23 µM |  |
| O=C1CCOc2c1cccc2C(=O)Nc1ccc(F)c(F)c1 [Compound 2, N-(3,4-difluorophenyl)-4-oxochromane-8-carboxamide] |  | 2.3 µM |  |
| O=C(Nc1ccc(F)c(F)c1)c1cccc2c1OCCC2O (stereo not drawn) [Compound 3, N-(3,4-difluorophenyl)-4-hydroxychromane-8-carboxamide] |  | 3.4 µM |  |
| O=C(Nc1ccc(F)c(F)c1)c1cccc2c1OCC[C@H]2O [Compound 4, (R)-N-(3,4-difluorophenyl)-4-hydroxychromane-8-carboxamide] |  | 2.2 µM |  |
| O=C(Nc1ccc(F)c(F)c1)c1cccc2c1OCC[C@@H]2O [Compound 5, (S)-N-(3,4-difluorophenyl)-4-hydroxychromane-8-carboxamide] |  | 3.9 µM |  |
| COC(=O)N[C@H]1CCOc2c(C(=O)Nc3ccc(F)c(F)c3)cccc21 [Compound 8, methyl (S)-(8-((3,4-difluorophenyl)carbamoyl)chroman-4-yl)carbamate] |  |  | EC50 [4]: 2.3 µM |
| CCC(=O)N[C@H]1CCOc2c(C(=O)Nc3ccc(F)c(F)c3)cccc21 [Compound 10, N-(3,4-Difluorophenyl)-4-propionamidochromane-8-carboxamide] |  | 5.8 µM |  |
| COC(=O)N[C@@H]1CCOc2c(C(=O)Nc3ccc(F)c(F)c3)cccc21 [Compound 11, methyl (R)-(8-((3,4-difluorophenyl)carbamoyl)chroman-4-yl)carbamate] |  |  | EC50 [4]: 21 µM |
| O=C(N[C@H]1CCOc2c(C(=O)Nc3ccc(F)c(F)c3)cccc21)c1cncs1 [Compound 12, N-(8-((3,4-difluorophenyl)carbamoyl)chroman-4-yl)thiazole-5-carboxamide] |  | 8.3 µM |  |
